The values below come from patent publication US20120196875A1, “PHARMACEUTICAL COMPOSITIONS FOR TREATMENT OF RESPIRATORY AND INFLAMMATORY DISEASES” (BOEHRINGER INGELHEIM INTERNATIONAL GMBH, priority 2010, published 2012).

The test has as its system Dunkin-Harley guinea pigs (OVA broncho-constriction). As to the kind of experiment: OVA-induced bronchospasm in sensitized, anaesthetized guinea pigs (modified Konzett-Rössler method, pyrilamin pre-treatment). In kind it is in vivo, guinea pig. How it is done: Male and female Dunkin-Harley guinea pigs were obtained from the Experimental Animal Breeding Centre of Harlan Winkelmann (Germany). After fasting overnight, but with free access to drinking water, animals with body weight of 400-500 g were used.
Bronchospasm was recorded with a modified version of the method of Konzett-Röβler (described by Walland et al, in “Compensation of muscarinic bronchial effects of talsaclidine by concomitant sympathetic activation in guinea pigs”, European Journal of Pharmacology, Volume 330, Issue 2-3, 9 July 1997, Pages 213-219). The animals were ventilated by means of a piston pump (starling ventilator, Hugo Sachs Elektronik, Germany) at a stroke volume of 1 ml/100 g body weight and at a rate of 60 strokes per min. The tubing which connected the tracheal cannula with the ventilator was provided with a branch leading to the bronchospasm transducer (bronchospasm transducer 7020, Ugo Basile, Italy). The air flow measurement is based on the hot wire anemometer principle. Any air flow will reduce the temperature of the wire, thereby decreasing its resistance in proportion of the flow. As the wire element is one arm of a Weaststone bridge, variations in resistance generate a proportional voltage output which feeds the amplifier/recording system (Notocord-hem, Notocord, France). Blood pressure and heart rate are monitored from a carotid artery in order to check the anesthesia and the variability of the preparation.
Guinea pigs were sensitized on 2 consecutive days with 20 μg ovalbumin (OVA) (Sigma, St. Louis, Mo.) and 20 mg Al(OH)3 in 0.5 mL saline, which were administered subcutaneously. Experiments, which included OVA challenge, were conducted 2 weeks after sensitization. Approximately 1 hour before OVA challenge, the animals were anaesthetized with an intraperitoneal injection of 50 mg/kg pentobarbital. Anesthesia was prolonged by intravenous infusion of pentobarbital (15 mg/kg/h) via the jugular vein. A tracheal cannula was introduced after tracheotomy for artificial ventilation. The internal jugular vein was cannulated for drug injection while the left carotid artery was cannulated for measuring blood pressure and heart rate. The test compounds or combinations of compounds were administered orally 2 hours before the OVA challenge. Pyrilamin (anti-histaminic) is injected intravenously at 2 mg/kg, 6 minutes before OVA challenge in order to record the non histamine-related bronchospasm. The OVA challenge induces mast cell degranulation responsible for the bronchospasm due to the release into the lung of inflammatory mediators such as histamine, leukotrienes, prostaglandins and tromboxanes. The pre-treatment of the guinea pigs with pyrilamin prevents the part of the bronchospasm induced by histamine (around 40 to 50% of the bronchospasm). 30 Minutes after the beginning of air flow and blood pressure measurements, bronchoconstriction is triggered by an OVA challenge given at a fixed dose of 50 μg/kg inhaled.
The control group comprises 12 guinea-pigs, test compounds comprise 2 to 4 guinea-pigs. At the end of the experiment, animals are euthanized by an overdose of pentobarbital (100 mg/kg i.v.).
OVA challenge in control guinea-pigs induces an overflow of 33 (±10) ml which is used as 100% bronchospasm. Bronchoprotection of the drug (i.e. inhibition of OVA broncho-constriction) is expressed as a percentage of inhibition of the increase in overflow induced by OVA in the control animals.

Setting [1] is: CRTH2 antagonist (1) 0.001 mg/kg p.o. alone.
[2] abbreviates: CRTH2 antagonist (1) 0.003 mg/kg p.o. alone.
[3] abbreviates: CRTH2 antagonist (1) 0.01 mg/kg p.o. alone.
Where [4] appears, read: CRTH2 antagonist (1) 0.03 mg/kg p.o. alone.
Setting [5] is: CRTH2 antagonist (1) 0.1 mg/kg p.o. alone.
Setting [6] is: CRTH2 antagonist (1) 0.3 mg/kg p.o. alone.
[7] abbreviates: CRTH2 antagonist (1) 1.0 mg/kg p.o. alone.
Where [8] appears, read: CRTH2 antagonist (1) 3.0 mg/kg p.o. alone.
Where [9] appears, read: CRTH2 antagonist (1) 10.0 mg/kg p.o. alone.

As for `CN(C)c1nc(Cc2ccc(NC(=O)c3ccc(C(F)(F)F)cc3)cc2)nc(N(C)C)c1CC(=O)O` [CRTH2 antagonist (1), [4,6-bis(dimethylamino)-2-(4-(4-(trifluoromethyl)benzamido)-benzyl)pyrimidin-5-yl]acetic acid], the bronchoprotection is reported as 0% under setting [1]; 0% under setting [2]; 0% under setting [3]; 0% under setting [4]; 0% under setting [5]; 24% under setting [6]. Further, the bronchoprotection runs as follows: under setting [7], 42%; under setting [8], 64%; under setting [9], 70%. The overflow reads like this: under setting [1], 38 mL; under setting [2], 35 mL; under setting [3], 40 mL; under setting [4], 33 mL; under setting [5], 41 mL; under setting [6], 25 mL. Also, the overflow is 19 mL under setting [7], 12 mL under setting [8] and 10 mL under setting [9].
Consider `O=C(Nc1c(Cl)cncc1Cl)c1ccc(OC(F)F)c(OCC2CC2)c1` [Roflumilast, roflumilast, reference compound], for which the overflow (Roflumilast 0.03 mg/kg p.o. alone, 2 hours before OVA challenge) came out at 28 mL. In addition, under “Roflumilast 0.03 mg/kg p.o. alone, 2 hours before OVA challenge, inhibition of OVA-induced overflow vs control”, the bronchoprotection is on record as 15%.
